Test results: patent US11344512B2, “Titration of tapentadol” (Grünenthal GmbH, priority 2007, dated 2022)

Experiments:
[1] = system: patients with chronic low back pain or chronic pain from osteoarthritis of the knee or hip; assay: Example E-3: opioid withdrawal after 90 days treatment (COWS and SOWS questionnaires), phase III trial; type: in vivo, human (patients); conditions: for patients reporting mild-to-moderate withdrawal symptoms (COWS assessment): 2 to 4 days after study medication ceased, after 90 days treatment
Method: The symptoms of opioid withdrawal following long-term treatment (90 days) with tapentadol immediate release (IR) compared with oxycodone IR were evaluated in a randomized, double-blind, active-control, parallel group, flexible dose, multicenter phase III trial of patients with chronic low back pain of chronic pain from osteoarthritis of the knee or hip. Patients (N=849) were randomly assigned in a 4:1 ratio to a flexible dose of tapentadol IR (50 or 100 mg/dose; maximum 600 mg/day) or oxycodone IR (10 or 15 mg/dose; maximum 90 mg/day) every 4 to 6 hours. Symptoms of withdrawal following opioid discontinuation were examined using the Clinical Opioid Withdrawal Score (COWS) and the Subjective Opioid Withdrawal Score (SOWS) questionnaires. […] The mean total SOWS score, 2 to 4 days after last study drug intake, was lower for the tapentadol IR group (6.9) than the oxycodone IR group (8.7). […] In addition, 5 or more days after last study drug intake, the mean total SOWS score was 6.3 for the tapentadol IR group and 7.0 for the oxycodone IR group (no significant difference).

[2] = system: patients with osteoarthritis of hip/knee or chronic low back pain; assay: Clinical studies C-1/C-2 (without titration) and E-1/E-2 (forced titration): occurrence of somnolence; type: in vivo, human (patients)
Method: A randomized, double-blind, multiple dose, parallel-group study assessing the efficacy and safety of 3 dosages of tapentadol prolonged release (bid) (25 mg, 50 mg and 100 mg) compared to oxycodone prolonged release (bid) 20 mg and placebo over 28 days in patients with hip and/or knee-joint osteoarthritis. Subjects: 40-75 years old, male and female patients. 375 patients, randomized to placebo, standard opioid, tapentadol. Treatment Regimen: Day 1 only evening dose Day 2—Day 28 bid Day 29 only morning dose.
A randomized, double-blind, multiple dose, parallel-group study assessing the efficacy and safety of tapentadol prolonged release 25, 50 and 100 mg compared to placebo and tramadol prolonged release 100 mg in patients with chronic low back pain.
Male and female patients 18-75 years old with a history of low back pain of at least 6 months, requiring regular treatment on at least 60 out of last 90 days.
430 patients, randomized to placebo, tramadol 100 mg prolonged release, 3 dosages tapentadol.
A randomized, double-blind, parallel-group study assessing the efficacy and safety of two titration regimen of tapentadol prolonged release (25 mg, 50 mg, 100 mg and 100 mg, 150 mg, 200 mg of free base of tapentadol) given orally twice daily (bid) compared to placebo and oxycodone controlled release (10 mg, 10 mg, 20 mg) in patients with chronic pain due to osteoarthritis of the knee. Subjects: Male and female patients≥40 years old with a diagnosis of osteoarthritis of the knee Treatment Regimen: Patients started with the lowest dose of the titration phase for the first 3 days and up-titrated to the intermediate dose on day 4. Subjects were maintained at the intermediate dose for the next 11 days. After these 11 days patients started the maintenance phase and received the highest dose of each regimen for the remaining 14 days. Subjects who were unable to tolerate the highest dose after having received that dose for at least 3 days were allowed to down titrate to the intermediate dose. Down titration was permitted only once during the fixed-dose maintenance phase.
A randomized, double-blind, parallel-group study that compares the efficacy and safety of two titration regimens of tapentadol prolonged release (25 mg-50 mg-100 mg and 100 mg-150 mg-200 mg) given orally twice daily (bid) and tramadol prolonged release (100 mg-150 mg-200 mg) p.o. bid to placebo in patients with moderate to severe chronic pain due to chronic low back pain. Subjects: Male and female patients≥18 years old with a diagnosis of low back pain of at least 3 months. Treatment Regimen:
Patients took the first dose and continued on the lowest dose in their treatment regimen for 3 days (i.e. 6 doses). After the sixth dose, patients titrated to the intermediate dose in their treatment regimen and continued on this intermediate dose for 11 days (i.e. 22 doses). Up-titration was mandatory. Patients who were unable to tolerate study medication were removed from the study. After the twenty second dose, patients titrated to the final dose in their treatment regimen and continued on this final dose for 14 days.
Concentration measurements were taken from comparative examples C-1 and C-2, both without dose titration. Examples E-1 and E-2 in the same indications were used to get PK/PD information under dose titration. In all studies adverse events were noted.

pain = assay: Preliminary clinical trials: pain treating effect (VAS) versus serum concentration of tapentadol; type: in vivo, human (individuals)
Method: In one preferred embodiment dose a is below the pharmaceutically effective pain treating dose of tapentadol. The pharmaceutically effective pain treating dose of tapentadol may vary individually and can be determined by routine experimentation for a given subject. Usually, the minimum pharmaceutically effective pain treating dose will be above 50 mg twice daily (bid). Preferably, effective pain treatment is to be regarded as at least 5% decrease in pain in an individual, more preferably at least 10%, still more preferably at least 15% and most preferably at least 20% decrease in pain in an individual, taking into account that low serum concentrations of tapentadol suffice to show an effect in individuals that are relatively sensitive and higher serum concentrations of tapentadol are needed to show an effect in persons that are relatively unsensitive.

adverse effects = conditions: cited from earlier work
[3] = 2 to 4 days after last study drug intake
[4] = 5 or more days after last study drug intake

Structure (SMILES): COc1ccc2c3c1O[C@H]1C(=O)CC[C@@]4(O)[C@@H](C2)N(C)CC[C@]314 [oxycodone IR, reference compound]
- mean total SOWS score [1, 3]: 8.7
- patients reporting mild-to-moderate withdrawal symptoms (COWS assessment) [1]: 29%
- mean total SOWS score [1, 4]: 7.0

Structure (SMILES): COc1ccc2c3c1O[C@H]1C(=O)CC[C@@]4(O)[C@@H](C2)N(C)CC[C@]314 [oxycodone, reference compound]
- effect of titration regimen of example E-1 on suppression of somnolence ([2]; FIG. 8, oxycodone controlled release): no comparable effect on the suppression of somnolence

Structure (SMILES): CC[C@@H](c1cccc(O)c1)[C@@H](C)CN(C)C [tapentadol IR]
- mean total SOWS score [1, 3]: 6.9
- patients reporting mild-to-moderate withdrawal symptoms (COWS assessment) [1]: 17%
- mean total SOWS score [1, 4]: 6.3

Structure (SMILES): CC[C@@H](c1cccc(O)c1)[C@@H](C)CN(C)C [tapentadol, (−)-(1R,2R)-3-(3-dimethylamino-1-ethyl-2-methyl-propyl)-phenol]
- visual analog scale (VAS) in a population mean (pain; at serum concentration about 5 ng/ml): approximately −2 mm
- visual analog scale (VAS) in a population mean (pain; at serum concentration about 300 ng/ml): approximately −15 mm
- concentration at which adverse events (somnolence) occurred, without titration (C-1, C-2) compared to dose titration (E-1, E-2) ([2]; FIG. 5 and 6, prolonged release): much lower concentration
- somnolence occurred in % of patients ([2]; studies using forced titration, total daily dose 200 mg, pooled data): 6%
- somnolence occurred in % of patients ([2]; studies using forced titration, total daily dose 400 mg, pooled data): 12%
- somnolence occurred in % of patients ([2]; studies without titration, total daily dose 172 mg, pooled data from both studies): 4.3%

Structure (SMILES): COc1cccc(C2(O)CCCCC2CN(C)C)c1 (stereo not drawn) [tramadol]
- frequency of dizziness, nausea and vomiting with slow titration (adverse effects): reduce the frequency
- frequency of somnolence with slow titration (adverse effects): not significantly reduced
